Experimental data published in publication PMC8119466, “A screen of FDA-approved drugs identifies inhibitors of protein tyrosine phosphatase 4A3 (PTP4A3 or PRL-3)” (Scientific Reports, 2021).
Structures can show the parent of a compound that is named as a salt. Where two headings read alike, the source gives them in different places.

Columns and labels:
Type in all cases: biochemical
[1] = molecular target: T1, recombinant PRL-3 (Homo sapiens, UniProt O75365); test: In vitro phosphatase assay (DiFMUP hydrolysis), PRL-3; also: test concentration or dose not given here
T1 construct: 6xHis (N, cleaved yes); made in house; host or cells: E. coli One Shot BL21 Star

[2] = molecular target: T2, recombinant PRL-2 (Homo sapiens, UniProt Q12974); test: In vitro phosphatase assay (DiFMUP hydrolysis), PRL-2;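 also: PRL-2 activity read as DiFMUP hydrolysis after 20 min at room temperature with drug, enzyme first pre-reduced at 4 °C for 20 min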
T2 construct: 6xHis (N, cleaved yes); made in house; host or cells: E. coli One Shot BL21 Star
T2 sequence (Q12974 1-167): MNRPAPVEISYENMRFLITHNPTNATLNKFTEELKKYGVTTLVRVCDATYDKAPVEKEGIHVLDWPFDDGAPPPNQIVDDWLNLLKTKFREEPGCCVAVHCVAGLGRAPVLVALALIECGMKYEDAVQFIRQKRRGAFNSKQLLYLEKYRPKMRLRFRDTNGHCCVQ

[3] = molecular target: T3, recombinant PRL-1 (Homo sapiens, UniProt Q93096); test: In vitro phosphatase assay (DiFMUP hydrolysis), PRL-1; also: test concentration or dose not given here
T3 construct: 6xHis (N, cleaved yes); made in house; host or cells: E. coli One Shot BL21 Star
T3 sequence (Q93096 1-173): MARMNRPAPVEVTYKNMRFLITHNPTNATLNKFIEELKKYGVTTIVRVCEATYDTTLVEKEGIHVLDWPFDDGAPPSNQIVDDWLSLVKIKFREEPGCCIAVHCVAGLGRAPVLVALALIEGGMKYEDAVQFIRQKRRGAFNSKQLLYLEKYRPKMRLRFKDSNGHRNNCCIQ

[4] = FDA-approved drug screen, compared to DMSO
[5] = FDA-approved drug screen, activity compared to DMSO

T1 sequence (O75365 whole entry): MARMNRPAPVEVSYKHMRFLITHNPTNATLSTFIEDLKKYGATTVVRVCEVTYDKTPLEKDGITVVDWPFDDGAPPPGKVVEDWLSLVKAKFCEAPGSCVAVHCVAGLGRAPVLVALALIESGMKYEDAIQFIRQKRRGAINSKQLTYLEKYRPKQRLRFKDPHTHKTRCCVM

| Structure (SMILES) | % Phosphatase Activity (compared to DMSO) PRL-3 [1, 4] | % Phosphatase Activity (compared to DMSO) PRL-2 [2, 4] | % Phosphatase Activity (compared to DMSO) PRL-1 [3, 4] | also measured |
| --- | --- | --- | --- | --- |
| CCN(C)C(=O)Oc1cccc([C@H](C)N(C)C)c1 [Rivastigmine Tartrate] | 79% | 107% | 95% |  |
| CNCC[C@H](Oc1cccc2ccccc12)c1cccs1 [Duloxetine HCl] |  |  |  | % Phosphatase Activity (compared to DMSO) PRL-3 [1]: 89%; % Phosphatase Activity (compared to DMSO) PRL-2 [2]: 107%; % Phosphatase Activity (compared to DMSO) PRL-1 [3]: 97% |
| CCOC(=O)[C@H](CCc1ccccc1)N[C@H]1CS[C@H](c2cccs2)CN(CC(=O)O)C1=O [Temocapril HCl] |  |  |  | % Phosphatase Activity (compared to DMSO) PRL-3 [1, 5]: 73%; % Phosphatase Activity (compared to DMSO) PRL-2 [2, 5]: 93%; % Phosphatase Activity (compared to DMSO) PRL-1 [3, 5]: 91% |
| CS(=O)(=O)O.Oc1ccc(C2CNCCc3c2cc(O)c(O)c3Cl)cc1 (stereo not drawn) [Fenoldopam (mesylate)] | 96% | 102% | 108% |  |
| CC1(O)CCC(C(C)(C)O)CC1.O (stereo not drawn) [Terpin (hydrate)] |  |  |  | % Phosphatase Activity (compared to DMSO) PRL-3 [1, 5]: 80%; % Phosphatase Activity (compared to DMSO) PRL-2 [2, 5]: 92%; % Phosphatase Activity (compared to DMSO) PRL-1 [3, 5]: 88% |
| CCN(CC)C(=O)N1CCN(C)CC1.O=C(O)CC(O)(CC(=O)O)C(=O)O [Diethylcarbamazine (citrate)] | 90% | 101% | 92% |  |
| COc1c(N2C[C@@H]3CCCN[C@@H]3C2)c(F)cc2c(=O)c(C(=O)O)cn(C3CC3)c12 [Moxifloxacin HCl] | 417% | 594% | 562% |  |
| Cc1cccc(N(C)C(=S)Oc2ccc3ccccc3c2)c1 [Tolnaftate] |  |  |  | % Phosphatase Activity (compared to DMSO) PRL-3 [1, 5]: 89%; % Phosphatase Activity (compared to DMSO) PRL-2 [2, 5]: 114%; % Phosphatase Activity (compared to DMSO) PRL-1 [3, 5]: 98% |
| CCN[C@H]1CN(CCCOC)S(=O)(=O)c2sc(S(N)(=O)=O)cc21 [Brinzolamide] | 81% | 110% | 92% |  |
| C[C@]12C=CC(=O)C=C1CC[C@H]1[C@@H]3C[C@@H](O)[C@](O)(C(=O)CO)[C@@]3(C)C[C@H](O)[C@@]12F [Triamcinolone] |  |  |  | % Phosphatase Activity (compared to DMSO) PRL-3 [1, 5]: 81%; % Phosphatase Activity (compared to DMSO) PRL-2 [2, 5]: 97%; % Phosphatase Activity (compared to DMSO) PRL-1 [3, 5]: 91% |
| Cc1ccc(-n2nccn2)c(C(=O)N2CCN(c3nc4cc(Cl)ccc4o3)CC[C@H]2C)c1 [Suvorexant (MK-4305)] |  |  |  | % Phosphatase Activity (compared to DMSO) PRL-3 [1, 5]: 89%; % Phosphatase Activity (compared to DMSO) PRL-2 [2, 5]: 78%; % Phosphatase Activity (compared to DMSO) PRL-1 [3, 5]: 86% |
| CC1(C)S[C@@H]2[C@H](NC(=O)[C@H](N)c3ccccc3)C(=O)N2[C@H]1C(=O)O [Ampicillin Trihydrate] | 72% | 106% | 92% |  |
| CCOC(=O)c1c(C)n(C)c2ccc(O)cc12 [Mecarbinate] | 77% | 100% | 108% |  |
| CC(C(=O)O)c1ccc2c(c1)CC(=O)c1ccccc1S2 (stereo not drawn) [Zaltoprofen] |  |  |  | % Phosphatase Activity (compared to DMSO) PRL-3 [1, 5]: 86%; % Phosphatase Activity (compared to DMSO) PRL-2 [2, 5]: 113%; % Phosphatase Activity (compared to DMSO) PRL-1 [3, 5]: 109% |
| S=C(NCc1ccc2c(c1)OCO2)N1CCN(c2ncnc3c2oc2ccccc23)CC1 [Amuvatinib (MP-470)] | 76% | 100% | 90% |  |
| COc1ccccc1Oc1c(NS(=O)(=O)c2ccc(C(C)(C)C)cc2)nc(-c2ncccn2)nc1OCCO [Bosentan Hydrate] | 93% | 96% | 87% |  |

| Structure (SMILES) | % Phosphatase Activity (compared to DMSO) PRL-3 [1, 4] | % Phosphatase Activity (compared to DMSO) PRL-2 [2, 4] | % Phosphatase Activity (compared to DMSO) PRL-1 [3, 4] | also measured |
| --- | --- | --- | --- | --- |
| Cc1cc(-n2c(=O)[nH]c(=O)n(C)c2=O)ccc1Oc1ccc(SC(F)(F)F)cc1 [Toltrazuril] |  |  |  | % Phosphatase Activity (compared to DMSO) PRL-3 [1, 5]: 73%; % Phosphatase Activity (compared to DMSO) PRL-2 [2, 5]: 93%; % Phosphatase Activity (compared to DMSO) PRL-1 [3, 5]: 88% |
| COC(c1ccccc1)(c1ccccc1)[C@H](Oc1nc(C)cc(C)n1)C(=O)O [Ambrisentan] | 78% | 99% | 94% |  |
| O=C([O-])c1cc(=O)c2c(OCC(O)COc3cccc4oc(C(=O)[O-])cc(=O)c34)cccc2o1.[Na+].[Na+] [Disodium Cromoglycate] | 93% | 78% | 93% |  |
| Cl.Nc1c(Br)cc(Br)cc1CN[C@H]1CC[C@H](O)CC1 [Ambroxol HCl] | 98% | 117% | 105% |  |
| CC[C@@]1(O)C(=O)OCc2c1cc1n(c2=O)Cc2cc3c(CN(C)C)c(O)ccc3nc2-1 [Topotecan HCl] |  |  |  | % Phosphatase Activity (compared to DMSO) PRL-3 [1, 5]: 140%; % Phosphatase Activity (compared to DMSO) PRL-2 [2, 5]: 192%; % Phosphatase Activity (compared to DMSO) PRL-1 [3, 5]: 168% |
| C[C@@H](O)[C@H]1C(=O)N2C(C(=O)O)=C(S[C@@H]3CN[C@H](C(=O)N(C)C)C3)[C@H](C)[C@H]12 [Meropenem] | 57% | 109% | 104% |  |
| Cc1ccc(C(=O)Nc2ccc(CN3CCN(C)CC3)c(C(F)(F)F)c2)cc1C#Cc1cnc2cccnn12 [Ponatinib (AP24534)] | 319% | 417% | 396% |  |
| Cc1c(-c2ccnn2C)cc(C(=O)NCc2ccc(S(C)(=O)=O)cn2)c(=O)n1-c1cccc(C(F)(F)F)c1 [Alvelestat (AZD9668)] | 121% | 114% | 138% |  |
| CC1=C(C(=O)O)N2C(=O)[C@@H](NC(=O)[C@H](N)c3ccccc3)[C@H]2SC1 [Cephalexin] | 98% | 81% | 98% |  |
| Cc1ccnc2c1NC(=O)c1cccnc1N2C1CC1 [Nevirapine] | 111% | 101% | 85% |  |
| CCCN(CCc1cccs1)[C@H]1CCc2c(O)cccc2C1 [Rotigotine] | 82% | 99% | 100% |  |
| CO[C@H]1O[C@@H]2O[C@@]3(C)CC[C@H]4[C@H](C)CC[C@@H]([C@H]1C)[C@@]24OO3 [Artemether] | 85% | 96% | 87% |  |
| Cc1cn[nH]c1 [Fomepizole] | 78% | 102% | 102% |  |
| CCOC(=O)[C@H]1O[C@@H]1C(=O)N[C@@H](CC(C)C)C(=O)NCCC(C)C [Aloxistatin] | 86% | 78% | 87% |  |
| O=c1n(CCCN2CCN(c3cccc(Cl)c3)CC2)nc2ccccn12 [Trazodone HCl] |  |  |  | % Phosphatase Activity (compared to DMSO) PRL-3 [1, 5]: 93%; % Phosphatase Activity (compared to DMSO) PRL-2 [2, 5]: 142%; % Phosphatase Activity (compared to DMSO) PRL-1 [3, 5]: 146% |
